Results taken from patent publication US5585273A (priority 1994, dated 1996).
Where a SMILES comes first, the peptide text is derived from it. [ ]: non-standard residue; d: D form. The star is where a group is joined. Sta = CC(C)C[C@H](N)[C@@H](O)CC(=O)O; Isovaleryl = CC(C)CC(=O)*

Key:
[1] = molecular target: T1, Papain (thiol protease) from papaya latex (Carica papaya, UniProt P00784); test: Inhibition of papain-mediated HRPO release (Experiment XV, Part 2); assay type: biochemical; conditions: Part II
T1 construct: purchased Sigma Chemical Co; host or cells: papaya latex
Description: (§1) In the second part, the enzymes are preincubated with their respective inhibitors and appropriate buffers for 15 mins. These are then added to the substrate and incubated at room temp for further 15 mins.
(§2) In both cases, the reaction mixture is centrifuged to remove solid phase conjugate. The supernatant (5 μl) is added to Hemoccult® slides and developed with 5 μl of hydrogen peroxide.

[2] = molecular target: T2, Trypsin (serine protease) from bovine pancreas (Bos taurus, UniProt P00760); test: Inhibition of trypsin-mediated HRPO release (Experiment XV, Part 2); assay type: biochemical; conditions: Part II
T2 construct: purchased U.S. Biochemicals; host or cells: bovine pancreas
Description: as §1, §2

[3] = tested on: [Sepharose-Hemoglobin-HRPO] (or the myoglobin equivalent) conjugate; conditions: acetate buffer pH 4.0, 15 minutes at room temperature
Description: 40 mg (wet weight) [Sepharose-Hemoglobin-HRPO] (or the myoglobin equivalent) conjugate were suspended in 75 microliters acetate buffer, pH 4.0 and 25 microliters of test solution were added. The suspension was incubated at room temperature for 15 minutes and centrifuged to remove the solid phase conjugate. Five microliters of the supernatant were added to a guaiac slide, followed by five microliters of hydrogen peroxide solution.

[4] = tested on: [Sepharose-Casein-HRPO] (or the Kappa-Casein equivalent) conjugate; conditions: acetate buffer pH 4.0, 15 minutes at room temperature
Description: 40 mg (wet weight) [Sepharose-Casein-HRPO] (or the Kappa-Casein equivalent) conjugate were suspended in 75 microliters acetate buffer, pH 4.0 and 25 microliters of test solution were added. The suspension was incubated at room temperature for 15 minutes and centrifuged to remove the solid phase conjugate. Five microliters of the supernatant were added to a guaiac slide, followed by five microliters of hydrogen peroxide solution.

[5] = tested on: [Chitin-Kappa-Casein-HRPO] conjugate; conditions: acetate buffer pH 4.0, 15 minutes at room temperature
Description: 40 mg (wet weight) [Chitin-Kappa-Casein-HRPO] conjugate were suspended in 75 microliters acetate buffer, pH 4.0 and 25 microliters of test solution were added. The suspension was incubated at room temperature for 15 minutes and centfifuged to remove the solid phase conjugate. Five μl of the supernatant were added to a guaiac slide, followed by five microliters of hydrogen peroxide solution.

[6] = tested on: [Sigmacell® 20-Hemoglobin-HRPO] (or the myoglobin equivalent) conjugate; conditions: acetate buffer pH 4.0, 15 minutes at room temperature
Description: 40 mg (wet weight) [Sigmacell® 20-Hemoglobin-HRPO] (or the myoglobin equivalent) conjugate were suspended in 75 microliters acetate buffer, pH 4.0 and 25 microliters of test solution were added. The suspension was incubated at room temperature for 15 minutes and centrifuged to remove the solid phase conjugate. Five microliters of the supernatant were added to a guaiac slide, followed by five microliters of hydrogen peroxide solution.

[7] = tested on: [POLYMERIC DIALDEHYDE-KAPPA-CASEIN-HRPO] conjugate; conditions: acetate buffer pH 4.0, 15 minutes at room temperature
Description: The suspension was incubated at room temperature for 15 minutes and centrifuged to remove the solid phase conjugate. Five microliters of the supernatant were added to a guaiac slide, followed by five microliters of hydrogen peroxide solution.

[8] = tested on: [SIGMACELL® 20-KAPPA-CASEIN-HRPO] (HYDRAZIDE METHOD) or [SIGMACELL® 20-MYOGLOBIN/HEMOGLOBIN-HRPO] (ALDEHYDE METHOD); conditions: acetate buffer pH 4.0, 15 minutes at room temperature
Description: (§3) 40 mg (wet weight) [Sigmacell® 20-Kappa-Casein-HRPO] conjugate were suspended in 75 microliters acetate buffer, pH 4.0 and 25 microliters of test solution were added. The suspension was incubated at room temperature for 15 minutes and centrifuged to remove the solid phase conjugate. Five microliters of the supernatant were added to a guaiac slide, followed by five microliters of hydrogen peroxide solution.

[9] = tested on: [Sigmacell® 20-Kappa-Casein-HRPO] conjugate; conditions: acetate buffer pH 4.0, 15 minutes at room temperature
Description: as §3

[10] = molecular target: Candida albicans aspartic protease (Candida albicans, UniProt P0DJ06); conditions: Part II
Candida albicans aspartic protease (Candida albicans, UniProt P0DJ06), sequence (P0DJ06 57-398): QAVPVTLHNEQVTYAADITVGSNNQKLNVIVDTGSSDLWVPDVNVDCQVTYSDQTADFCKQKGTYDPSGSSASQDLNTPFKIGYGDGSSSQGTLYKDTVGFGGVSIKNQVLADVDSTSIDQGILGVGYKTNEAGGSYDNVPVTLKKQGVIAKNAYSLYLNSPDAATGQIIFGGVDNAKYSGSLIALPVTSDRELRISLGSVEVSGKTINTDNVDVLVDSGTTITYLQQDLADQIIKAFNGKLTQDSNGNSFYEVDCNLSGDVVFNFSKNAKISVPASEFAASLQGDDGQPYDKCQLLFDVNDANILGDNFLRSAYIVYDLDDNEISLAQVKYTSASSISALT
Description: as §1, §2

[11] = tested on: Candida albicans aspartic protease; conditions: background statement; cited from earlier work
[12] = tested on: [Eupergit® C-Myoglobin-HRPO]; test: Activity of various proteases on Eupergit C-myoglobin-HRPO (Experiment XV); assay type: biochemical; conditions: Part I
Description: This assay is set up in two parts. The first is to determine the activity of the different proteases on the substrate [Eupergit® C-Myoglobin-HRPO]. The enzymes and controls (enzymes boiled for 15 min) are incubated with 20 mg of substrate and buffers (see quantities in table below) for 15 minutes prior to assay.

Cc1ccc(S(=O)(=O)NC(CCCCN)C(=O)CCl)cc1 (stereo not drawn) [TLCK, Tosyl lysine chloromethyl ketone]
inhibition of color formation by papain [1]: inhibits color formation | inhibition of color formation by trypsin [2]: inhibits color formation

Pepsin
blue color formation on guaiac impregnated sheet [3]: dark blue color | blue color formation on guaiac impregnated sheet [4]: dark blue color | blue color formation on guaiac impregnated sheet [5]: dark blue color | blue color formation on guaiac impregnated sheet [6]: dark blue color | blue color formation on guaiac impregnated sheet [7]: dark blue color | blue color formation on guaiac impregnated sheet [8]: dark blue color | blue color formation on guaiac impregnated sheet [9]: dark blue color

CC(C)CC(=O)N[C@H](C(=O)N[C@H](C(=O)N[C@@H](CC(C)C)[C@@H](O)CC(=O)N[C@@H](C)C(=O)N[C@@H](CC(C)C)[C@@H](O)CC(=O)O)C(C)C)C(C)C [Pepstatin, Pepstatin A] (Isovaleryl-VV[Sta]A[Sta]-OH)
inhibition of color formation by aspartic protease [10]: inhibits color formation | inhibition of Candida albicans aspartic protease [11]: strongly inhibited

B1: Trypsin (boiled): trypsin boiled for 15 min (control) (protein, UniProt P00760 24-246, looked up)
Serine protease 1: IVGGYTCGANTVPYQVSLNSGYHFCGGSLINSQWVVSAAHCYKSGIQVRLGEDNINVVEGNEQFISASKSIVHPSYNSNTLNNDIMLIKLKSAASLNSRVASISLPTSCASAGTQCLISGWGNTKSSGTSYPDVLKCLKAPILSDSSCKSAYPGQITSNMFCAGYLEGGKDSCQGDSGGPVVCSGKLQGIVSWGSGCAQKNKPGVYTKVCNYVSWIKQTIASN
modifications: heat-denatured
blue color formation on guaiac slides ([12]; pH 7.4): faintest color detectable

B2: Trypsin: Trypsin (serine protease) from bovine pancreas (2900 units/mg activity), 2 mg/ml (protein, UniProt P00760 24-246, looked up)
Serine protease 1: IVGGYTCGANTVPYQVSLNSGYHFCGGSLINSQWVVSAAHCYKSGIQVRLGEDNINVVEGNEQFISASKSIVHPSYNSNTLNNDIMLIKLKSAASLNSRVASISLPTSCASAGTQCLISGWGNTKSSGTSYPDVLKCLKAPILSDSSCKSAYPGQITSNMFCAGYLEGGKDSCQGDSGGPVVCSGKLQGIVSWGSGCAQKNKPGVYTKVCNYVSWIKQTIASN
blue color formation on guaiac slides ([12]; pH 7.4): strong blue color

B3: Papain (boiled): papain boiled for 15 min (control) (protein, UniProt P00784 134-345, looked up)
Papain: IPEYVDWRQKGAVTPVKNQGSCGSCWAFSAVVTIEGIIKIRTGNLNEYSEQELLDCDRRSYGCNGGYPWSALQLVAQYGIHYRNTYPYEGVQRYCRSREKGPYAAKTDGVRQVQPYNEGALLYSIANQPVSVVLEAAGKDFQLYRGGIFVGPCGNKVDHAVAAVGYGPNYILIKNSWGTGWGENGYIRIKRGTGNSYGVCGLYTSSFYPVKN
modifications: heat-denatured
blue color formation on guaiac slides ([12]; pH 7.4): faintest color detectable

B4: Papain: Papain (thiol protease) from papaya latex (12 units/mg activity), 2 mg/ml (protein, UniProt P00784 134-345, looked up)
Papain: IPEYVDWRQKGAVTPVKNQGSCGSCWAFSAVVTIEGIIKIRTGNLNEYSEQELLDCDRRSYGCNGGYPWSALQLVAQYGIHYRNTYPYEGVQRYCRSREKGPYAAKTDGVRQVQPYNEGALLYSIANQPVSVVLEAAGKDFQLYRGGIFVGPCGNKVDHAVAAVGYGPNYILIKNSWGTGWGENGYIRIKRGTGNSYGVCGLYTSSFYPVKN
blue color formation on guaiac slides ([12]; pH 7.0): strong blue color
